Several values for one entry are separate records, joined by “and”; a condition that tells them apart may be missing. Identical values can stand only once.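 48-hour exposure; five concentrations; linearly interpolated endpoints. The concentration for 50% growth inhibition is given as GI50. TGI: concentration producing complete growth inhibition.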
What was measured:
Experiment in all cases: DTP human tumour cell line panel, 48 h
[1] = tested on: T-47D breast
[2] = tested on: CAKI-1 renal
[3] = tested on: HS 578T breast
[4] = tested on: SNB-19 CNS
[5] = tested on: PC-3 prostate
[6] = tested on: A549 NSCLC
[7] = tested on: HT29 colon
[8] = tested on: IGROV1 ovarian
[9] = tested on: SR leukemia
[10] = tested on: HOP-62 NSCLC

| SMILES | GI50 [1] | TGI [1] [µM] | GI50 [2] | TGI [2] [µM] | GI50 [3] | TGI [3] | GI50 [4] | TGI [4] [µM] | GI50 [5] | TGI [5] | GI50 [6] | TGI [6] [µM] | GI50 [7] | TGI [7] | GI50 [8] | TGI [8] [µM] | GI50 [9] [µM] | TGI [9] [µM] | GI50 [10] | TGI [10] [µM] |
| --- | --- | --- | --- | --- | --- | --- | --- | --- | --- | --- | --- | --- | --- | --- | --- | --- | --- | --- | --- | --- |
| Cc1cc(Br)c2nsnc2c1[N+](=O)[O-] | 0.921 µM | 5.96 | 1.6 µM | 3.26 | 2.97 µM | 18.4 µM | 7.63 µM | 20.6 | 4.49 µM | 15.8 µM | 4.13 µM | 17.3 | 2.04 µM | 4.31 µM | 1.65 µM | 3.62 | 0.706 | 3.23 | 4.59 µM | 16.3 |
| COc1ccc(Oc2nc(Nc3ccc(N4CCOCC4)cc3)ncc2NC(=O)Nc2cc(OC)cc(OC)c2)cc1 | 5.13 µM | > 33.3 | 4.24 µM | 13.5 | 8 µM | > 33.3 µM | 4.66 µM | 28.8 | 2.39 µM | 14.2 µM | 1.86 µM | 12.5 | 1.42 µM | 6.69 µM | 4.45 µM | 13.9 | 6.76 | > 33.3 | 5.48 µM | 22.2 |
| Cc1ccc(NC(C(=O)c2ccccc2)c2ccccc2)cc1 (centres undefined) | 2.02 µM | 11.5 | 10.6 µM | 39.7 | 2.09 µM | 7.79 µM | 4.26 µM | > 100 | 2.78 µM | 52.4 µM | 4.08 µM | > 100 |  |  | 2.11 µM | 22.6 | 4.26 | 52.9 | 9.75 µM | 39.1 |
| O=C(NC1CCNCC1)c1[nH]ncc1NC(=O)c1c(Cl)cccc1Cl | 1.18 µM and 1.01 µM | > 100 | 14.9 µM and 4.09 µM | > 100 | 0.307 µM and 0.329 µM | 3.83 µM and > 2.71 µM | 0.361 µM and 0.336 µM | > 60 | 0.332 µM and 0.323 µM | 5.01 µM and > 10 µM | 0.637 µM and 0.86 µM | > 100 | 0.398 µM and 0.406 µM | 6.29 µM and > 10 µM | 0.681 µM and 0.362 µM | > 55.2 |  |  | 0.451 µM and 0.414 µM | > 100 |
| CC[C@@]1(OC(=O)C(N)CCC(=O)O)C(=O)OCc2c1cc1n(c2=O)Cc2cc3ccccc3nc2-1 (some centres undefined) |  | > 100 |  | 0.235 |  | > 100 µM |  | > 30.7 |  | > 100 µM |  | 3.37 |  | > 100 µM |  | 4.35 |  |  |  | 0.125 |
| Cc1cc(N2CCN(C)CC2)nc(N(CCNc2ccnc3cc(Cl)ccc23)Cc2ccco2)n1 | 2.07 µM | 6.41 |  |  | 4.42 µM | 35.7 µM | 4.92 µM | 16.5 | 3.7 µM | 13.8 µM | 4.1 µM | 14.6 | 2.47 µM | 10.4 µM | 2.91 µM | 12.2 | 2.09 | 5.23 | 2.63 µM | 9.73 |
| O=C(CCCCCNC1=CC(=O)c2ccccc2C1=O)NCCC[Te]c1ccccc1 | 0.676 µM | 2.59 | 1.7 µM | 3.93 | 0.364 µM | 2.65 µM | 1.64 µM | 9.65 | 0.25 µM | 2.58 µM | 0.32 µM | 1.54 | 0.377 µM | 1.48 µM | 0.518 µM | 1.89 |  |  | 0.272 µM | 0.731 |
| O=c1c(-c2ccc3c(c2)OCO3)coc2c(CO)c(O)ccc12 | 2.48 µM | 14.9 |  |  | 2.28 µM | 7.12 µM | 2.87 µM | 10.3 | 1.54 µM | 4.03 µM | 6.8 µM | 30.9 | 16.9 µM | 44.8 µM | 2.01 µM | 4.93 | 2.65 | > 100 | 2.07 µM | 5.01 |
| COc1cc(-c2nccc3[nH]c(-c4cccc5[nH]ccc45)nc23)cc(OC)c1OC | 4.94 µM | 27.3 | < 0.01 µM | 14.6 | < 0.01 µM | 23.9 µM | < 0.01 µM | 20.6 | < 0.01 µM | 15.7 µM | < 0.01 µM | 1.78 | < 0.01 µM | 1.26 µM | < 0.01 µM | 23.2 | < 0.01 | 10.4 |  |  |
| Cc1cn(C2CC(N=[N+]=[N-])C(CO)O2)c(=O)[nH]c1=O (centres undefined) | > 1000 µM | > 1000 | 479 µM | > 1000 |  | > 1000 µM |  |  |  | > 1000 µM | 325 µM | > 1000 |  | > 1000 µM | > 1000 µM | > 1000 |  | > 1000 | > 1000 µM | > 1000 |
| O=[N+]([O-])c1ccc(N/N=C/c2ccccc2O)nc1 | 3.2 µM | > 100 | 0.738 µM | 8.37 | > 100 µM | > 100 µM | 3.88 µM | > 100 | 4.3 µM | > 100 µM | 2.07 µM | > 100 | 0.975 µM | > 100 µM | 2.7 µM | > 100 |  |  | 4.5 µM | > 100 |

Reference: PubChem BioAssay (NCI)
